The source of these data is patent US20250123269A1 (priority 2023, published 2025).

In assay [1] the test system is SARS-COV-2 B.1.617.2 delta. It is filed as cell-based.
The test system of assay [2] is SARS-COV-2 B.1.1.529 omicron. The class given is cell-based.

In the case of `CC(C)(C)[C@H](NC(=O)C(F)(F)F)C(=O)N1C[C@H]2[C@@H]([C@H]1C(=O)N[C@H](C#N)C[C@@H]1CCNC1=O)C2(C)C` [nirmatrelvir, Nirmatrelvir], in assay [1], the “dose-dependent inhibition of infection” value is on record as “dose-dependent inhibition of infection” and the reduction of infection is listed as 50%. Further, in assay [2], the “dose-dependent inhibition of infection” value is given as “dose-dependent inhibition of infection” and the inhibition of infection entry was “nearly completely inhibited”.
With `O=c1nc(NO)ccn1[C@@H]1O[C@H](CO)[C@@H](O)[C@H]1O` [EIDD-1931], in assay [1], the “dose-dependent inhibition of infection” value is listed as “dose-dependent inhibition of infection”, the inhibition of infection result is on record as “complete inhibition” and the reduction of infection result is listed as “at least 50%”. In assay [2], the “dose-dependent inhibition of infection” value is “dose-dependent inhibition of infection”, the inhibition of infection entry was “complete inhibition” and the reduction of infection entry is reported as “at least 50%”.
As for `Cc1c(O)cccc1C(=O)N[C@@H](CSc1ccccc1)[C@H](O)CN1C[C@H]2CCCC[C@H]2C[C@H]1C(=O)NC(C)(C)C` [nelfinavir], in assay [1], the “dose-dependent inhibition of infection” value is on record as “dose-dependent inhibition of infection” and the inhibition of infection result was “did not completely inhibit infection”. In addition, in assay [2], the “dose-dependent inhibition of infection” value is “dose-dependent inhibition of infection” and the inhibition of infection entry is “did not completely inhibit infection”.
